pKi: −log10 of the molar value.
Assays:
[1] = target: Neuronal acetylcholine receptor; alpha4/beta2 (Rattus norvegicus, UniProt P09483+P12390); experiment: Displacement of [3H]cytisine from rat alpha4beta2 nAChR in rat brain cell membrane; format: cell membranes
[2] = target: Neuronal acetylcholine receptor subunit alpha-7 (Rattus norvegicus, UniProt Q05941); experiment: Displacement of [125I]alpha-Bungarotoxin from alpha7 nAchR in rat brain cell membrane; format: cell membranes
Neuronal acetylcholine receptor subunit alpha-7, sequence (Q05941 whole entry): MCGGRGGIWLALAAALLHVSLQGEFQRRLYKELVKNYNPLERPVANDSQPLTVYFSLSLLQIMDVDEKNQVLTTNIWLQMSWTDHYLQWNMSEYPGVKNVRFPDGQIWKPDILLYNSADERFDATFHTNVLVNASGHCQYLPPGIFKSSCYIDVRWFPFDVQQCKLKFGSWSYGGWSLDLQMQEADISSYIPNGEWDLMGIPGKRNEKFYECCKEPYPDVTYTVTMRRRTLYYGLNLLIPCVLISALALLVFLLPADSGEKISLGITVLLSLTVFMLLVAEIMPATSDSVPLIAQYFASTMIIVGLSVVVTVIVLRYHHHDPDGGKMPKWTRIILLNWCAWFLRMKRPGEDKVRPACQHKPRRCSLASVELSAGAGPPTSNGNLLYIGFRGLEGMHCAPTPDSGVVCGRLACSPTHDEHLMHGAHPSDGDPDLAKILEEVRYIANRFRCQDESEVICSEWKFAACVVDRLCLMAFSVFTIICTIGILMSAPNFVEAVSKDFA

Neuronal acetylcholine receptor; alpha4/beta2, sequence (P09483 whole entry): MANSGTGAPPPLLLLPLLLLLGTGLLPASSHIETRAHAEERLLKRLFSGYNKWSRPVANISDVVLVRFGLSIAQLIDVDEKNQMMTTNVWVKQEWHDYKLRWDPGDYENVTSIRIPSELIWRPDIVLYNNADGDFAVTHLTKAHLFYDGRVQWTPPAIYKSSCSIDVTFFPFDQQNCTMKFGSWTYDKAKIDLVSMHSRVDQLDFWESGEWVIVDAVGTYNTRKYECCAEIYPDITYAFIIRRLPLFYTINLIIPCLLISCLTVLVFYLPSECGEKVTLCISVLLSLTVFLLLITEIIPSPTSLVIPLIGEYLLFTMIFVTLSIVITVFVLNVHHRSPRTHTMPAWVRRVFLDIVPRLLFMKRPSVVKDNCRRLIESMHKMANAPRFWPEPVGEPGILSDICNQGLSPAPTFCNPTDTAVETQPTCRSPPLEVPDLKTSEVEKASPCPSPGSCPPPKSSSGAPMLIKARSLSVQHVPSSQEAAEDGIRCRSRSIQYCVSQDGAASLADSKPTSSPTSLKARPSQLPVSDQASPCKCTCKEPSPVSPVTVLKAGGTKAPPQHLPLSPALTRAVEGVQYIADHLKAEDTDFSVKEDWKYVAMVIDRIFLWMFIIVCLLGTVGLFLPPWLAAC
Neuronal acetylcholine receptor; alpha4/beta2, sequence (P12390 whole entry): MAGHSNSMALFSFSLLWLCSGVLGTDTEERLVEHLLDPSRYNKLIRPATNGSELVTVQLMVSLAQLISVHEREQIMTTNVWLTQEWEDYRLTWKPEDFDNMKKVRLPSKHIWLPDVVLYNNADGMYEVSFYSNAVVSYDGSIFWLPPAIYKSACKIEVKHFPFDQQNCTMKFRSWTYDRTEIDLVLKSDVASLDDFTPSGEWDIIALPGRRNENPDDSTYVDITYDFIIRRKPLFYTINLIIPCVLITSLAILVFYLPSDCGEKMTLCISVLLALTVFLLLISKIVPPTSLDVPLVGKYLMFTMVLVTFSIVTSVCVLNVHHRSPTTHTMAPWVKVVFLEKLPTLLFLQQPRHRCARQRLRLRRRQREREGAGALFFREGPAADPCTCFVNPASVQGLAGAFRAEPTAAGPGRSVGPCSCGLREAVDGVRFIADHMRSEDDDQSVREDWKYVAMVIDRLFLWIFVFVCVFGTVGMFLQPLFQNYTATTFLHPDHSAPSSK

SMILES	pKi [1]	pKi [2]
O=c1c(F)ccc2n1C[C@@H]1CNC[C@H]2C1	8.19	–
O=c1c(C(F)(F)F)ccc2n1C[C@@H]1CNC[C@H]2C1	9.66	6.00
Cc1ccc2n(c1=O)C[C@@H]1CNC[C@H]2C1	9.62	5.70
O=c1cccc2n1C[C@@H]1C[C@@H]2CN(I)C1	9.78	5.70
O=c1c(Br)ccc2n1C[C@@H]1CNC[C@H]2C1	9.94	6.40
O=c1cccc2n1C[C@@H]1C[C@@H]2CN(Br)C1	9.68	6.95
O=c1cccc2n1C[C@@H]1CNC[C@H]2C1 [CYTISINICLINE]	8.97	6.00

Source: ChEMBL document CHEMBL1268923, “Identification of 9-fluoro substituted (-)-cytisine derivatives as ligands with high affinity for nicotinic receptors” (Bioorg Med Chem Lett, 2010)
